Results as given in patent publication US9340590B2 (priority 2011, dated 2016).
Where two headings read alike, the source gives them in different places. Positions of bridges follow the written chain, without caps; N, C: chain ends. Residues, ends and D or L forms follow the SMILES beside them.

Legend:
hNav1.3 = hNav1.3 (Homo sapiens, UniProt Q9NY46); assay: cell-based; details: IonWorks Quattro, read-out: IWQ Use Nav1.3
hNav1.5 = hNav1.5 (Homo sapiens, UniProt Q14524); assay: cell-based
[1] = IonWorks Quattro, Use, read-out: IWQ Use Nav1.5

Sequence of hNav1.5 (Q14524 whole entry, looked up): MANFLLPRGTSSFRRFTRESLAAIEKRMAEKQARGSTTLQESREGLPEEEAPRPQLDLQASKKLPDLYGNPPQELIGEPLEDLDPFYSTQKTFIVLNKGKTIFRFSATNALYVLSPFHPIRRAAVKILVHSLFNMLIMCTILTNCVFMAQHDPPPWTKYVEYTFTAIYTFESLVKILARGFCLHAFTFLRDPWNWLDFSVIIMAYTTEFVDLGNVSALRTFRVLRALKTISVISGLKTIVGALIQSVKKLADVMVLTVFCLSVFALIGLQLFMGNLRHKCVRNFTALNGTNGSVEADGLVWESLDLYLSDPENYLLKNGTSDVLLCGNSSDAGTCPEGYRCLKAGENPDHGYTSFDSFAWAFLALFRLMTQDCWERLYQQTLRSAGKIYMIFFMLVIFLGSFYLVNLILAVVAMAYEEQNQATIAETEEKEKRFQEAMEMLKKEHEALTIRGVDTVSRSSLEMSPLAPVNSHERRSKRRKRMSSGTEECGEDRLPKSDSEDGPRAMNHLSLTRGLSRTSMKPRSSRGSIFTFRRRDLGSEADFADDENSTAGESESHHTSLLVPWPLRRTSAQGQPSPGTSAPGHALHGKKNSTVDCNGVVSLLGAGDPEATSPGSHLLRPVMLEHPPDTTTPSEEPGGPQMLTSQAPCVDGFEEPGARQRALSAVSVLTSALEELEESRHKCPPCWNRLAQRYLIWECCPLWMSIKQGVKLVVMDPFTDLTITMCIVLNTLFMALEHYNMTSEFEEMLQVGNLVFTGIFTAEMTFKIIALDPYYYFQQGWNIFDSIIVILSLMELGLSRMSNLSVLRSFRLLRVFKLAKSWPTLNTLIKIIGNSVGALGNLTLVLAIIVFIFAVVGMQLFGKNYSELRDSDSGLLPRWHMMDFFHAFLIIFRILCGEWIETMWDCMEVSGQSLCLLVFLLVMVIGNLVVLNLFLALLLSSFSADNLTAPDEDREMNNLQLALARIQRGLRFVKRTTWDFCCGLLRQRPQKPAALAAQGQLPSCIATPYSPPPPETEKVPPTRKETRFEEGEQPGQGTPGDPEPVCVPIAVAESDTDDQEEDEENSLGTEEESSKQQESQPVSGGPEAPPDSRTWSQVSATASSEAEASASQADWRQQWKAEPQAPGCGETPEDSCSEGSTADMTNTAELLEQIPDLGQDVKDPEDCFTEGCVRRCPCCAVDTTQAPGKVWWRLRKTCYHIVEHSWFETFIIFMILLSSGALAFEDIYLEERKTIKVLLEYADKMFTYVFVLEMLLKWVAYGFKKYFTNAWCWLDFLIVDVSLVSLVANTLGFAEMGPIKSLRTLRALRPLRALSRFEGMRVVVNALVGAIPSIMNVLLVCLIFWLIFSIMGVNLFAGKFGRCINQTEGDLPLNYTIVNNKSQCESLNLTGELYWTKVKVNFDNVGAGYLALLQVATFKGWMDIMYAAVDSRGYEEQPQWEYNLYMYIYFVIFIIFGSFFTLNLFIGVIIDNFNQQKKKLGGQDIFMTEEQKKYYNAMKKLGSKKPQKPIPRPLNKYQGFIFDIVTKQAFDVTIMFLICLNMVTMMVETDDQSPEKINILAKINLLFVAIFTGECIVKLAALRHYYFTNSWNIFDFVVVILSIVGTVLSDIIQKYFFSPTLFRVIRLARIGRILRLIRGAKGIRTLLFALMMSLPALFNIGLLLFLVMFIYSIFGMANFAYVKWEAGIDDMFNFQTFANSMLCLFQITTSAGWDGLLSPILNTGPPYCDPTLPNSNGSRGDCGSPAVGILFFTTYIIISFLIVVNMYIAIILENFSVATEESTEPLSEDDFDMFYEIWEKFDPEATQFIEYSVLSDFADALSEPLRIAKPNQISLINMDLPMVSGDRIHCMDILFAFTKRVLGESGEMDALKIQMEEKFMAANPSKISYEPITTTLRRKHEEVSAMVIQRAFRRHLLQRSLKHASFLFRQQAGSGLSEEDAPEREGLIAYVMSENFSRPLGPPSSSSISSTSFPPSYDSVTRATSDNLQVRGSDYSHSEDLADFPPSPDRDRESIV
Sequence of hNav1.3 (Q9NY46 whole entry, looked up): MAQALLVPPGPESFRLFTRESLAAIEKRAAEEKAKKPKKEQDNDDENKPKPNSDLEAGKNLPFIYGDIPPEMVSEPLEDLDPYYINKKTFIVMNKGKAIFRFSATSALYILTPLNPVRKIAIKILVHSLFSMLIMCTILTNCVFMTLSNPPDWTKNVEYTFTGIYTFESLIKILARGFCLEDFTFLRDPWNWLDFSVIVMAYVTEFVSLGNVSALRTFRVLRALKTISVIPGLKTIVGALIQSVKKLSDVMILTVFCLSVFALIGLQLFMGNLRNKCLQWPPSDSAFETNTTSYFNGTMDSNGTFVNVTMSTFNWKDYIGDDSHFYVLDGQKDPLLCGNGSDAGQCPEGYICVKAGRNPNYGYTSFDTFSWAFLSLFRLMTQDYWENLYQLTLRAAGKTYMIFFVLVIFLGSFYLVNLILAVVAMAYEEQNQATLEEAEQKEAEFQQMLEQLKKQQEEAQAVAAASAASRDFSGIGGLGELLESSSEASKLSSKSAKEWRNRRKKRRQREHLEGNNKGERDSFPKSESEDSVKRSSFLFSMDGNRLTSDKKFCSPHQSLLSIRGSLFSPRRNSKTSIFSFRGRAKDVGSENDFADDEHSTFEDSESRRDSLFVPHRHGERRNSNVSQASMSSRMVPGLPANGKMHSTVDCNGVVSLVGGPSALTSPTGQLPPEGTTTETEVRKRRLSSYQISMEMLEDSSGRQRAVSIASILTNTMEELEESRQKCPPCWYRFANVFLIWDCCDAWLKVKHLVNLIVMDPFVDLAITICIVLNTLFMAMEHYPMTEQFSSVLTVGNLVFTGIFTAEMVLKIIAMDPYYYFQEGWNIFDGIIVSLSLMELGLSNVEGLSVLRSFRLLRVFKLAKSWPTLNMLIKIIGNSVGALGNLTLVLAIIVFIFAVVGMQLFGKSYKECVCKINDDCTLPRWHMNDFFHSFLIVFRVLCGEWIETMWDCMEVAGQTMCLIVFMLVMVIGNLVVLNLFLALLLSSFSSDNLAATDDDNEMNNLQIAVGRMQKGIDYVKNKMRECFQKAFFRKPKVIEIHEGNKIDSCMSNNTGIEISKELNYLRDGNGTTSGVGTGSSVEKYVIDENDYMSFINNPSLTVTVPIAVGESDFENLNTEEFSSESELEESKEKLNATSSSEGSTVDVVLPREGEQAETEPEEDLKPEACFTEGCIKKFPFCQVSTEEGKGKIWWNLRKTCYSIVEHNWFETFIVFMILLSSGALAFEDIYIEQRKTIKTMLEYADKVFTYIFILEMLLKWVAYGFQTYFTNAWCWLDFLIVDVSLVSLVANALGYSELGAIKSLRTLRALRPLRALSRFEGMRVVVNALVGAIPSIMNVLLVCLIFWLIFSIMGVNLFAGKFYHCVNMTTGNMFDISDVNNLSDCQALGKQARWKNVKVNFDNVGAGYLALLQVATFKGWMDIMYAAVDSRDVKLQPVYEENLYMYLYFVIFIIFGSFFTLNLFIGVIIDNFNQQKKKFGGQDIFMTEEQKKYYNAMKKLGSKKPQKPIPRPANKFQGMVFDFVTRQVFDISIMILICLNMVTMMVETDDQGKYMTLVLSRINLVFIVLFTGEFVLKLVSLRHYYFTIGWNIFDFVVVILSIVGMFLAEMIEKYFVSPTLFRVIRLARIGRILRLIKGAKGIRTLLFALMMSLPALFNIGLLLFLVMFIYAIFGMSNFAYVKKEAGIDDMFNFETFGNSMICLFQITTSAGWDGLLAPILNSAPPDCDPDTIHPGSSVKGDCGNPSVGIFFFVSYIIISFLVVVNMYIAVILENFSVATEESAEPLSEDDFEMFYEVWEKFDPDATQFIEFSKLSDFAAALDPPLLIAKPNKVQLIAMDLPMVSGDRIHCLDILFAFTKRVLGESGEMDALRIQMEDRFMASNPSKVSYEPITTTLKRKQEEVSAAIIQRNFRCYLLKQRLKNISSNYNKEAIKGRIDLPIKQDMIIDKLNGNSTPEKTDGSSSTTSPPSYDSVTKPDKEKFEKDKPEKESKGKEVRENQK

For `CC[C@H](C)[C@@H]1NC(=O)[C@@H]2CSSC[C@@H]3NC(=O)[C@H](C(C)C)NC(=O)[C@H](CC(C)C)NC(=O)[C@H](CC(N)=O)NC(=O)[C@@H]4CCCN4C(=O)[C@H](CCCNC(=N)N)NC(=O)[C@H](CSSC[C@H](NC(=O)[C@@H](N)CC(=O)O)C(=O)N[C@@H](CC(C)C)C(=O)N[C@@H](Cc4c[nH]c5ccccc45)C(=O)N[C@@H](Cc4ccccc4)C(=O)N[C@@H](CCSC)C(=O)N[C@@H](CCCNC(=N)N)C(=O)N[C@@H](CCCCN)C(=O)N2)NC(=O)[C@H](CSSC[C@@H](C(=O)N[C@@H](CCCCN)C(=O)N[C@@H](Cc2ccc(O)cc2)C(=O)N[C@H](C(=O)N[C@@H](Cc2ccccc2)C(N)=O)C(C)C)NC(=O)[C@H](Cc2c[nH]c4ccccc24)NC(=O)[C@H](CCCCN)NC(=O)[C@H](Cc2cnc[nH]2)NC(=O)[C@H]([C@@H](C)O)NC(=O)[C@H](CCCNC(=N)N)NC(=O)[C@H](CO)NC3=O)NC(=O)[C@H](CCCCN)NC(=O)[C@H](CC(=O)O)NC(=O)[C@H](CC(N)=O)NC(=O)[C@H](CC(=O)O)NC(=O)[C@@H]2CCCN2C1=O` [SEQ ID NO: 169] (H-DCLWFMRKCIPDNDKCCRPNLVCSRTHKWCKYVF-NH2; disulfide 2-17, 9-23, 16-30), the IC50 (hNav1.3; clamped to −110 mV, depolarized to −10 mV, 5 min after compound, n=2) was 30 nM and the IC50 (hNav1.5; IonWorks Quattro, clamped to −110 mV, depolarized to −10 mV, 5 min after compound, n=2, read-out: IWQ Use Nav1.5) was 10.3 µM.
For `CC[C@H](C)[C@@H]1NC(=O)[C@@H]2CSSC[C@@H]3NC(=O)[C@H](C(C)C)NC(=O)[C@H](CC(C)C)NC(=O)[C@H](CC(N)=O)NC(=O)[C@@H]4CCCN4C(=O)[C@H](CCCNC(=N)N)NC(=O)[C@H](CSSC[C@H](NC(=O)[C@@H](N)CC(=O)O)C(=O)N[C@@H](CC(C)C)C(=O)NCC(=O)N[C@@H](Cc4ccccc4)C(=O)N[C@@H](CCSC)C(=O)N[C@@H](C)C(=O)N[C@@H](CCCCN)C(=O)N2)NC(=O)[C@H](CSSC[C@@H](C(=O)N[C@@H](CCCCN)C(=O)N[C@@H](Cc2ccc(O)cc2)C(=O)N[C@H](C(=O)N[C@@H](Cc2ccccc2)C(N)=O)C(C)C)NC(=O)[C@H](Cc2c[nH]c4ccccc24)NC(=O)[C@H](CCCCN)NC(=O)[C@H](Cc2cnc[nH]2)NC(=O)[C@H]([C@@H](C)O)NC(=O)[C@H](CCCNC(=N)N)NC(=O)[C@H](CO)NC3=O)NC(=O)[C@H](CCCCN)NC(=O)[C@H](CC(=O)O)NC(=O)[C@H](CC(N)=O)NC(=O)[C@H](CC(=O)O)NC(=O)[C@@H]2CCCN2C1=O` [[Ala7]GpTx-1(1-34)] (H-DCLGFMAKCIPDNDKCCRPNLVCSRTHKWCKYVF-NH2; disulfide 2-17, 9-23, 16-30), the IC50 (hNav1.3; use-dependent block, hNav1.3) was 830 nM and the IC50 (hNav1.5; IonWorks Quattro, use-dependent block, hNav1.5, read-out: IWQ Use Nav1.5) was 21.5 µM.
In the case of `CC[C@H](C)[C@@H]1NC(=O)[C@@H]2CSSC[C@@H]3NC(=O)[C@H](C(C)C)NC(=O)[C@H](CC(C)C)NC(=O)[C@H](CC(N)=O)NC(=O)[C@@H]4CCCN4C(=O)[C@H](CCCNC(=N)N)NC(=O)[C@H](CSSC[C@H](NC(=O)[C@@H](N)CC(=O)O)C(=O)N[C@@H](CC(C)C)C(=O)NCC(=O)N[C@@H](Cc4ccccc4)C(=O)N[C@@H](CCSC)C(=O)N[C@@H](CCCNC(=N)N)C(=O)N[C@@H](CCC(=O)O)C(=O)N2)NC(=O)[C@H](CSSC[C@@H](C(=O)N[C@@H](CCCCN)C(=O)N[C@@H](Cc2ccc(O)cc2)C(=O)N[C@H](C(=O)N[C@@H](Cc2ccccc2)C(N)=O)C(C)C)NC(=O)[C@H](Cc2c[nH]c4ccccc24)NC(=O)[C@H](CCCCN)NC(=O)[C@H](Cc2cnc[nH]2)NC(=O)[C@H]([C@@H](C)O)NC(=O)[C@H](CCCNC(=N)N)NC(=O)[C@H](CO)NC3=O)NC(=O)[C@H](CCCCN)NC(=O)[C@H](CC(=O)O)NC(=O)[C@H](CC(N)=O)NC(=O)[C@H](CC(=O)O)NC(=O)[C@@H]2CCCN2C1=O` [[Glu8]GpTx-1(1-34)] (H-DCLGFMRECIPDNDKCCRPNLVCSRTHKWCKYVF-NH2; disulfide 2-17, 9-23, 16-30), the IC50 (hNav1.3; use-dependent block, hNav1.3) is reported as 1360 nM and the IC50 (hNav1.5; IWQ Use Nav1.5 (μM)) is reported as 24.9 µM.
For `CC[C@H](C)[C@@H]1NC(=O)[C@@H]2CSSC[C@@H]3NC(=O)[C@H](C(C)C)NC(=O)[C@H](CC(C)C)NC(=O)[C@H](CC(N)=O)NC(=O)[C@@H]4CCCN4C(=O)[C@H](CCCNC(=N)N)NC(=O)[C@H](CSSC[C@H](NC(=O)[C@@H](N)CC(=O)O)C(=O)N[C@@H](CC(C)C)C(=O)NCC(=O)N[C@@H](Cc4ccccc4)C(=O)N[C@@H](CCSC)C(=O)N[C@@H](CCCNC(=N)N)C(=O)N[C@@H](CCCCN)C(=O)N2)NC(=O)[C@H](CSSC[C@@H](C(=O)N[C@@H](CCCCN)C(=O)N[C@@H](Cc2ccc(O)cc2)C(=O)N[C@H](C(=O)N[C@@H](Cc2ccccc2)C(N)=O)C(C)C)NC(=O)[C@H](Cc2c[nH]c4ccccc24)NC(=O)[C@H](CCCCN)NC(=O)[C@H](Cc2cnc[nH]2)NC(=O)[C@H]([C@@H](C)O)NC(=O)[C@H](CCCNC(=N)N)NC(=O)[C@H](CO)NC3=O)NC(=O)[C@H](CCCCN)NC(=O)[C@H](CC(=O)O)NC(=O)[C@H](CC(N)=O)NC(=O)[C@H](C)NC(=O)[C@@H]2CCCN2C1=O` [compound 4] (H-DCLGFMRKCIPANDKCCRPNLVCSRTHKWCKYVF-NH2; disulfide 2-17, 9-23, 16-30), the IC50 (hNav1.3; Use) was 130 nM and the IC50 (hNav1.5; IWQ Use Nav1.5 (μM)) was 8.05 µM.
Work on `CC[C@H](C)[C@@H]1NC(=O)[C@@H]2CSSC[C@@H]3NC(=O)[C@H](C(C)C)NC(=O)[C@H](CC(C)C)NC(=O)[C@H](C)NC(=O)[C@@H]4CCCN4C(=O)[C@H](CCCNC(=N)N)NC(=O)[C@H](CSSC[C@H](NC(=O)[C@@H](N)CC(=O)O)C(=O)N[C@@H](CC(C)C)C(=O)NCC(=O)N[C@@H](Cc4ccccc4)C(=O)N[C@@H](CCSC)C(=O)N[C@@H](CCCNC(=N)N)C(=O)N[C@@H](CCCCN)C(=O)N2)NC(=O)[C@H](CSSC[C@@H](C(=O)N[C@@H](CCCCN)C(=O)N[C@@H](Cc2ccc(O)cc2)C(=O)N[C@H](C(=O)N[C@@H](Cc2ccccc2)C(N)=O)C(C)C)NC(=O)[C@H](Cc2c[nH]c4ccccc24)NC(=O)[C@H](CCCCN)NC(=O)[C@H](Cc2cnc[nH]2)NC(=O)[C@H]([C@@H](C)O)NC(=O)[C@H](CCCNC(=N)N)NC(=O)[C@H](CO)NC3=O)NC(=O)[C@H](CCCCN)NC(=O)[C@H](CC(=O)O)NC(=O)[C@H](CC(N)=O)NC(=O)[C@H](CC(=O)O)NC(=O)[C@@H]2CCCN2C1=O` [compound 7] (H-DCLGFMRKCIPDNDKCCRPALVCSRTHKWCKYVF-NH2; disulfide 2-17, 9-23, 16-30) yielded an IC50 (hNav1.3; Use) of 410 nM and an IC50 (hNav1.5; [1]) of 19.5 µM.
Work on `CC[C@H](C)[C@@H]1NC(=O)[C@@H]2CSSC[C@@H]3NC(=O)[C@H](C)NC(=O)[C@H](CC(C)C)NC(=O)[C@H](CC(N)=O)NC(=O)[C@@H]4CCCN4C(=O)[C@H](CCCNC(=N)N)NC(=O)[C@H](CSSC[C@H](NC(=O)[C@@H](N)CC(=O)O)C(=O)N[C@@H](CC(C)C)C(=O)NCC(=O)N[C@@H](Cc4ccccc4)C(=O)N[C@@H](CCSC)C(=O)N[C@@H](CCCNC(=N)N)C(=O)N[C@@H](CCCCN)C(=O)N2)NC(=O)[C@H](CSSC[C@@H](C(=O)N[C@@H](CCCCN)C(=O)N[C@@H](Cc2ccc(O)cc2)C(=O)N[C@H](C(=O)N[C@@H](Cc2ccccc2)C(N)=O)C(C)C)NC(=O)[C@H](Cc2c[nH]c4ccccc24)NC(=O)[C@H](CCCCN)NC(=O)[C@H](Cc2cnc[nH]2)NC(=O)[C@H]([C@@H](C)O)NC(=O)[C@H](CCCNC(=N)N)NC(=O)[C@H](CO)NC3=O)NC(=O)[C@H](CCCCN)NC(=O)[C@H](CC(=O)O)NC(=O)[C@H](CC(N)=O)NC(=O)[C@H](CC(=O)O)NC(=O)[C@@H]2CCCN2C1=O` [compound 8] (H-DCLGFMRKCIPDNDKCCRPNLACSRTHKWCKYVF-NH2; disulfide 2-17, 9-23, 16-30) yielded an IC50 (hNav1.3; Use) of 320 nM and an IC50 (hNav1.5; [1]) of 20.4 µM.
For `CC[C@H](C)[C@@H]1NC(=O)[C@@H]2CSSC[C@@H]3NC(=O)[C@H](C(C)C)NC(=O)[C@H](CC(C)C)NC(=O)[C@H](CC(N)=O)NC(=O)[C@@H]4CCCN4C(=O)[C@H](CCCNC(=N)N)NC(=O)[C@H](CSSC[C@H](NC(=O)[C@@H](N)CC(=O)O)C(=O)N[C@@H](CC(C)C)C(=O)NCC(=O)N[C@@H](Cc4ccccc4)C(=O)N[C@@H](CCSC)C(=O)N[C@@H](CCCNC(=N)N)C(=O)N[C@@H](CCCCN)C(=O)N2)NC(=O)[C@H](CSSC[C@@H](C(=O)N[C@@H](CCCCN)C(=O)N[C@@H](C)C(=O)N[C@H](C(=O)N[C@@H](Cc2ccccc2)C(N)=O)C(C)C)NC(=O)[C@H](Cc2c[nH]c4ccccc24)NC(=O)[C@H](CCCCN)NC(=O)[C@H](Cc2cnc[nH]2)NC(=O)[C@H]([C@@H](C)O)NC(=O)[C@H](CCCNC(=N)N)NC(=O)[C@H](CO)NC3=O)NC(=O)[C@H](CCCCN)NC(=O)[C@H](CC(=O)O)NC(=O)[C@H](CC(N)=O)NC(=O)[C@H](CC(=O)O)NC(=O)[C@@H]2CCCN2C1=O` [compound 14] (H-DCLGFMRKCIPDNDKCCRPNLVCSRTHKWCKAVF-NH2; disulfide 2-17, 9-23, 16-30), the IC50 (hNav1.3; Table 25, use, […]) was 770 nM and the IC50 (hNav1.5; Table 25, IonWorks Quattro, use, […], read-out: IWQ Use Nav1.5) was 20.6 µM.
